Test results taken from paper PMC8273887 (Journal of Medicinal Chemistry, 2021).

Key:
[1] = Stability in simulated gastric fluid (SGF); assay type: in vitro ADME, porcine; conditions: simulated gastric fluid (SGF) with pepsin, pH 1.3, 15 μL of 1 mM peptide stock in 285 μL SGF, 37 °C, samples 0 min-24 h quenched with 0.2 M Na2CO3, RP-HPLC/LC-MS peak area as % of time 0, exponential one-phase decay fit, read-out: t1/2 in SGF
Method: (§1) We exposed TFF3(C^57Acm) and TFF3 homodimer to simulated gastric fluid (SGF, containing pepsin, pH 1.3) and simulated intestinal fluid (SIF, containing pancreatic enzymes, pH 6.8), and monitored the mixture over 24 h by analytical RP-HPLC and MS. The N- and C-termini of TFF3 and its homodimer were readily truncated in both SGF and SIF (Figure 4A,B). In SGF, TFF3 was cleaved at Leu^6/Ser^7 followed by cleavage at Glu^54/Ala^55 (t1/2 < 5 min). In SIF, TFF3 was cleaved first at Thr^58/Phe^59 followed by cleavage at Leu^6/Ser^7, Glu^56/Cys^57, and Ala^55/Glu^56 (t1/2 < 5 min). TFF3 homodimer, in both SGF (t1/2 ∼ 40 min) and SIF (t1/2 < 5 min), was first broken down to monomeric TFF3 through simultaneous cleavage at Leu^6 and Glu^54 or Ala^55, eventually leading to the same metabolites as TFF3 (Figure 4B).
(§2) Simulated gastric fluid (SGF) was prepared by dissolving 20 mg of NaCl and 8 mg of pepsin in 70 μL of concentrated HCl (32%), and the volume was diluted to 10 mL with Milli-Q water (pH 1.3).[76],[77] Simulated intestinal fluid (SIF) was prepared by dissolving 68 mg of KH2PO4 in 500 μL of Milli-Q water followed by the addition of 800 μL of 0.2 M NaOH and 100 mg of porcine pancreatin, and the volume was adjusted to 10 mL with Milli-Q water (pH 6.8).[76],[77] Peptide stock solution (1 mM; 15 μL) was added to SGF (285 μL) or SIF (285 μL) and incubated at 37 °C. Samples (30 μL) from SGF and SIF were taken at 0, 5, 15, and 30 min and 1, 2, 4, 8, and 24 h timepoints and subsequently quenched with 30 μL of 0.2 M Na2CO3 (SGF) or 30 μL of 5% aqueous TFA (SIF). The samples were analyzed by analytical RP-HPLC (30 μL) and/or LC-MS (20 μL). The amount of peptide remaining was determined by measuring the peak area and expressing it as a % of the peak area at time 0. Peptide half-life (t1/2) was determined from the peptide degradation profiles using an exponential one-phase decay fit in Prism (version 7, GraphPad, La Jolla). LC-MS analysis was performed in a Q-Star Pulsar mass spectrometer (SCIEX, Ontario, Canada), and the raw data spectra were processed using the peptide reconstruction tool in the BioAnalyst software to identify the mass of the metabolites. The stability of the disulfide bonds was assessed through incubation of the peptides (10 μM) with 10 equiv of reduced glutathione (GSH; 100 μM) in sodium phosphate (50 mM) buffer at pH 7.2. Samples were taken at timepoints 0, 4, 8, and 24 h, quenched by adding 10% TFA, and analyzed by analytical RP-HPLC using an analytical C3 column (Agilent Zorbax SB-C3, 5 μm, 2.1 mm × 250 mm, 300 Å).

[2] = Stability in simulated intestinal fluid (SIF); assay type: in vitro ADME; conditions: pig, simulated intestinal fluid (SIF) with porcine pancreatin, pH 6.8, 15 μL of 1 mM peptide stock in 285 μL SIF, 37 °C, samples 0 min-24 h quenched with 5% aqueous TFA, RP-HPLC/LC-MS peak area as % of time 0, exponential one-phase decay fit, read-out: t1/2 in SIF
Method: as §1, §2

human erythrocytes = test: Hemolysis analysis; assay type: cell-based; conditions: 1 h, 37 °C, absorbance 405 nm, 0.2–25 μM final concentration, two independent experiments
Source text: Considering the therapeutic potential of TFF3, it was important to determine any cytotoxic and hemolytic effects early on to avoid problems in later stages of drug development. We therefore assessed cytotoxicity on HEK-293 cells and hemolytic effects in human erythrocytes. We treated the cells with TFF3(C^57Acm) and TFF3 homodimer and used resazurin, a blue dye that produces strong fluorescence when reduced by living cells, as the readout of the number of viable cells.[60] In the hemolytic assay, we evaluated hemoglobin release, an indicator of erythrocyte lysis, upon exposure to the peptides.
Monomeric and homodimeric TFF3 were serially diluted twofold in 0.9% NaCl and seeded (25 μL) in a 384-well polypropylene plate (0.2–25 μM final concentration). […] The cells were counted using a Neubauer hemocytometer and then diluted to 1 × 10^8/mL in 0.9% NaCl. […] Following incubation, the plates were centrifuged at 1000g for 10 min to pellet cells and debris and then 25 μL of the supernatant was transferred into a 384-well flat-bottom PS plate and absorbance (Abs) was read at 405 nm using a Tecan M1000 Pro monochromator plate reader. Percent hemolysis was calculated using the following equation: Hemolysis (%) = (Abssample – Absnegative/Abspositive – Absnegative) × 100. […]

CXCR4 = molecular target: T1, CXCR4 (Homo sapiens, UniProt P61073); test: Inositol 1 phosphate (IP1) accumulation assay (HTRF) in COS-7 cells transfected with CXCR4; assay type: cell-based; conditions: 5 min preincubation with peptide (1 or 10 μM final), then CXCL12 10^-12 to 10^-5 M; COS-7/CXCR4; IP1 HTRF
T1 construct: expressed in transfected cells; host or cells: COS-7 (African green monkey), transient co-transfection with GαΔ6qi4myr
T1 sequence (P61073 whole entry): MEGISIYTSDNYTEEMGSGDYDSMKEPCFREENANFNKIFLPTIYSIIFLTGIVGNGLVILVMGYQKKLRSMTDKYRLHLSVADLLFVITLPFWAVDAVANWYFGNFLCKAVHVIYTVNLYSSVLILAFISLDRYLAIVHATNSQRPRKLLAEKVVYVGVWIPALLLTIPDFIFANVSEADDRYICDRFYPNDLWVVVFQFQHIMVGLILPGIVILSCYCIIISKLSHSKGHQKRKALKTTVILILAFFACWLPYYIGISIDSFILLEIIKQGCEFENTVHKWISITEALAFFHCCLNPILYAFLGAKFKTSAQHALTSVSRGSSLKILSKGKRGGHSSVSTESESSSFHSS
Source text: CXCR4 is a member of the G protein-coupled receptor (GPCR) family[58] and proposed as a target receptor for TFF3 to mediate wound healing.[30],[39] We therefore pharmacologically characterized TFF3(C^57Acm) and TFF3 homodimer at CXCR4. We used a chimeric Gαiq protein to switch the pathway to the Gαq signaling, which leads to the activation of the phospholipase and allows measurement of CXCR4 activation through the production of inositol 1 phosphate (IP1).[61]−[63] We measured IP1 accumulation upon stimulation with TFF3(C^57Acm) and TFF3 homodimer in fibroblast-like COS-7 cells transiently transfected with CXCR4.[58] This is a competitive immunoassay, based on the HTRF technology, where native IP1 produced by cells compete with labeled IP1 (acceptor) for binding to anti-IP1-cryptate (donor). The specific signal (i.e., Förster resonance energy transfer, FRET) is inversely proportional to the concentration of IP1 in the sample. The calculation of the fluorescence ratio eliminates possible medium interferences.[64]
COS-7 cells (fibroblast-like cells from African green monkey) were transiently co-transfected with the CXCR4 C-terminally fused to eYFP in pVitro2 vector and the untagged chimeric G protein GαΔ6qi4myr in pcDNA3.1 plasmid using Metafectene Pro according to manufacturer’s protocol. The cells were cultured in DMEM with higher glucose and supplemented with 10% FCS without any antibiotics at 37 °C and 5% CO2 in 95% humidity. Cisbio IP-One Gq assay kit was used according to previous description with minor modifications to measure activity.[80] Briefly, a standard curve was prepared in HBSS (Hanks’ balanced salt solution) with 20 mM LiCl to determine the linear range of the assay and 10 000 cells/well were cultured overnight in a 384-well flat white plate (Greiner Bio-one GmbH, Frickenhausen, Germany). TFF3 and its homodimer as well as CXCL12 were diluted in HBSS containing 20 mM LiCl. Stimulation was carried out for 1 h in triplicate at 37 °C. Subsequently, 3 μL of IP1-d2 and 3 μL of Ab-cryptate in lysis buffer were added to the wells and incubated on a tumbler for 60 min at 25 °C. Fluorescence was then measured at 620 and 665 nm and the HTRF (homogeneous time-resolved fluorescence) ratio (665/620 nm) was calculated. Data analysis was performed with Prism (version 7, GraphPad, La Jolla). Tested compounds were normalized to CXCL12 wild type, with the highest HTRF ratio set to 0% and the lowest HTRF ratio set to 100% response. […] The final concentration range of 10^–12 to 10^–5 M to CXCL12 and 1 or 10 μM to TFF3(C^57Acm) and TFF3 homodimer was achieved by adding the compounds from a threefold concentrated stock solution.

[3] = molecular target: chemokine receptor type 4 (CXCR4), C-terminally fused to eYFP (UniProt P61073)
Sequence of chemokine receptor type 4 (CXCR4), C-terminally fused to eYFP (P61073 whole entry, the tested form may be a part): as the sequence (P61073 whole entry) above

Sequence of C-X-C motif chemokine 12 (CXCL12), recombinant human, with an additional N-terminal methionine (P48061 other isoform, or with tags, fused parts or gaps): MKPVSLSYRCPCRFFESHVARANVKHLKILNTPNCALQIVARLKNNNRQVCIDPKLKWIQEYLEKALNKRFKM

| Compound | half-life at 50 μM [1] [min] | half-life at 50 μM [2] [min] | concentration up to which no hemolytic effect was displayed (human erythrocytes) [µM] | effect on the EC50 of CXCL12 at CXCR4 (antagonism) (CXCR4) | EC50 of IP1 accumulation (HTRF, IP-One Gq kit) in COS-7 cells transfected with CXCR4 and a chimeric G protein; CXCL12 10^-12 to 10^-5 M [3] [nM] |
| --- | --- | --- | --- | --- | --- |
| CC[C@H](C)[C@@H]1NC(=O)[C@H](CCCNC(=N)N)NC(=O)[C@H](CO)NC(=O)[C@H](CC(=O)O)NC(=O)[C@H](Cc2ccccc2)NC(=O)[C@@H]2CSSC[C@H](NC(=O)[C@H](CCC(N)=O)NC(=O)[C@H](CC(N)=O)NC(=O)[C@H](C)NC(=O)[C@H](CO)NC(=O)[C@H](CC(C)C)NC(=O)CNC(=O)[C@@H](NC(=O)[C@H](Cc3ccc(O)cc3)NC(=O)[C@H](CCC(=O)O)NC(=O)[C@@H](N)CCC(=O)O)C(C)C)C(=O)N[C@@H](C)C(=O)N[C@@H](C(C)C)C(=O)N3CCC[C@H]3C(=O)N[C@@H](C)C(=O)N[C@@H](CCCCN)C(=O)N[C@@H](CC(=O)O)C(=O)N[C@@H](CCCNC(=N)N)C(=O)N[C@@H](C(C)C)C(=O)N[C@@H](CC(=O)O)C(=O)N[C@H]3CSSC[C@H](NC(=O)CNC(=O)[C@H](CCCNC(=N)N)NC(=O)[C@H](CC(N)=O)NC(=O)[C@H](CC(N)=O)NC(=O)[C@H](CSSC[C@@H](C(=O)N[C@@H](Cc4ccccc4)C(=O)N[C@@H](CCCCN)C(=O)N4CCC[C@H]4C(=O)N[C@@H](CC(C)C)C(=O)N[C@@H](CCC(N)=O)C(=O)N[C@@H](CCC(=O)O)C(=O)N[C@@H](C)C(=O)N[C@@H](CCC(=O)O)C(=O)N[C@@H](CSSC[C@H](NC(=O)[C@H](CCC(=O)O)NC(=O)[C@H](C)NC(=O)[C@H](CCC(=O)O)NC(=O)[C@H](CCC(N)=O)NC(=O)[C@H](CC(C)C)NC(=O)[C@@H]4CCCN4C(=O)[C@H](CCCCN)NC(=O)[C@H](Cc4ccccc4)NC(=O)[C@@H]4CSSC[C@@H]5NC(=O)[C@H](CCC(=O)O)NC(=O)[C@H](CCCCN)NC(=O)[C@@H]6CCCN6C(=O)[C@H]([C@@H](C)O)NC(=O)[C@H](C(C)C)NC(=O)[C@H](Cc6c[nH]cn6)NC(=O)[C@@H]6CCCN6C(=O)[C@H](Cc6ccc(O)cc6)NC(=O)CNC(=O)[C@@H]6CSSC[C@H](NC(=O)CNC(=O)[C@H](CCCNC(=N)N)NC(=O)[C@H](CC(N)=O)NC(=O)[C@H](CC(N)=O)NC5=O)C(=O)N[C@@H](CSSC[C@H](NC(=O)[C@H](CCC(N)=O)NC(=O)[C@H](CC(N)=O)NC(=O)[C@H](C)NC(=O)[C@H](CO)NC(=O)[C@H](CC(C)C)NC(=O)CNC(=O)[C@@H](NC(=O)[C@H](Cc5ccc(O)cc5)NC(=O)[C@H](CCC(=O)O)NC(=O)[C@@H](N)CCC(=O)O)C(C)C)C(=O)N[C@@H](C)C(=O)N[C@@H](C(C)C)C(=O)N5CCC[C@H]5C(=O)N[C@@H](C)C(=O)N[C@@H](CCCCN)C(=O)N[C@@H](CC(=O)O)C(=O)N[C@@H](CCCNC(=N)N)C(=O)N[C@@H](C(C)C)C(=O)N[C@@H](CC(=O)O)C(=O)N6)C(=O)N[C@@H](Cc5ccccc5)C(=O)N[C@@H](CC(=O)O)C(=O)N[C@@H](CO)C(=O)N[C@@H](CCCNC(=N)N)C(=O)N[C@@H]([C@@H](C)CC)C(=O)N5CCC[C@H]5C(=O)NCC(=O)N[C@@H](C(C)C)C(=O)N5CCC[C@H]5C(=O)N[C@@H](Cc5c[nH]c6ccccc56)C(=O)N4)C(=O)N[C@H](C(=O)N[C@@H](Cc4ccccc4)C(=O)O)[C@@H](C)O)C(=O)N[C@H](C(=O)N[C@@H](Cc4ccccc4)C(=O)O)[C@@H](C)O)NC(=O)[C@H](Cc4c[nH]c5ccccc45)NC(=O)[C@@H]4CCCN4C(=O)[C@H](C(C)C)NC(=O)CNC(=O)[C@@H]4CCCN4C1=O)NC(=O)[C@H](CCC(=O)O)NC(=O)[C@H](CCCCN)NC(=O)[C@@H]1CCCN1C(=O)[C@H]([C@@H](C)O)NC(=O)[C@H](C(C)C)NC(=O)[C@H](Cc1c[nH]cn1)NC(=O)[C@@H]1CCCN1C(=O)[C@H](Cc1ccc(O)cc1)NC(=O)CNC3=O)C(=O)N2 [TFF3 homodimer] | ~40 | < 5 | > 25 | not affected |  |
| C-X-C motif chemokine 12 (CXCL12), recombinant human, with an additional N-terminal methionine (from UniProt P48061 22-93) (ligand) |  |  |  |  | 5.9 |
